Drawing on ChEMBL document CHEMBL5030565, “Stapled Peptides Targeting SARS-CoV-2 Spike Protein HR1 Inhibit the Fusion of Virus to Its Cell Receptor” (J Med Chem, 2021), this text covers Activity and EC50 for seven molecules.

Experiment [1] deals with SARS-CoV-2. In words: Antiviral activity against pseudotyped SARS-CoV-2 infected in Huh7 cells expressing hACE2 at 10 uM preincubated for 1 hr followed by cell infection measured after 2 days by bright-Glo luciferase assay. Type of experiment: functional, Severe acute respiratory syndrome coronavirus 2, Huh-7. The conditions noted are these: time 49 hrs.
The subject of experiment [2] is SARS-CoV-2. In words: Antiviral activity against SARS-CoV-2 infected in Vero E6 cells assessed as reduction in viral replication at 12.5 uM preincubated for 30 mins followed by viral infection measured after 72 hrs by crystal violet staining based plaque assay. Type of experiment: functional, Severe acute respiratory syndrome coronavirus 2. On the set-up: scale not given: the % may be the effect or the level left.

Experiment [3] relates to SARS-CoV-2. In words: Antiviral activity against pseudotyped SARS-CoV-2 infected in Huh7 cells expressing hACE2 preincubated for 1 hr followed by cell infection measured after 2 days by bright-Glo luciferase assay. It is filed as functional, organism-based. The conditions noted are these: Severe acute respiratory syndrome coronavirus 2, Huh-7.

`CC[C@H](C)[C@H](NC(=O)CNC(=O)[C@H](CO)NC(=O)[C@@H](NC(=O)[C@H](CC(=O)O)NC(C)=O)[C@@H](C)CC)C(=O)N[C@@H](CC(N)=O)C(=O)N[C@@H](C)C(=O)N[C@@H](CO)C(=O)N[C@H](C(=O)N[C@H](C(=O)N[C@@H](CC(N)=O)C(=O)N[C@H](C(=O)N[C@@H](CCC(N)=O)C(=O)N[C@@]1(C)CCC/N=C\CCC[C@@](C)(C(=O)N[C@@H](CC(C)C)C(=O)N[C@@H](CC(N)=O)C(=O)N[C@@H](CCC(=O)O)C(=O)N[C@H](C(=O)N[C@@H](C)C(=O)N[C@@H](CCCCN)C(=O)N[C@@H](CC(N)=O)C(=O)N[C@@H](CC(C)C)C(=O)N[C@@H](CC(N)=O)C(=O)N[C@@H](CCC(=O)O)C(=O)N[C@@H](CO)C(=O)N[C@@H](CC(C)C)C(=O)N[C@H](C(=O)N[C@@H](CC(=O)O)C(=O)N[C@@H](CC(C)C)C(=O)N[C@@H](CCC(N)=O)C(=O)N[C@@H](CCC(=O)O)C(=O)N[C@@H](CC(C)C)C(N)=O)[C@@H](C)CC)C(C)C)NC(=O)[C@H](CC(=O)O)NC(=O)[C@H]([C@@H](C)CC)NC(=O)[C@H](CCC(=O)O)NC1=O)[C@@H](C)CC)C(C)C)C(C)C`: the Activity in the experiment on SARS-CoV-2 [1] turned out to be 16.1%; in the experiment on SARS-CoV-2 [2], 28.5%.

As for `CC[C@H](C)[C@H](NC(=O)CNC(=O)[C@H](CO)NC(=O)[C@@H](NC(=O)[C@H](CC(=O)O)NC(C)=O)[C@@H](C)CC)C(=O)N[C@@H](CC(N)=O)C(=O)N[C@@H](C)C(=O)N[C@@H](CO)C(=O)N[C@H](C(=O)N[C@H](C(=O)N[C@@H](CC(N)=O)C(=O)N[C@H](C(=O)N[C@@H](CCC(N)=O)C(=O)N[C@@H](CCCCN)C(=O)N[C@@H](CCC(=O)O)C(=O)N[C@H](C(=O)N[C@@]1(C)CCC/C=C\CCC[C@@](C)(C(=O)N[C@H](C(=O)N[C@@H](C)C(=O)N[C@@H](CCCCN)C(=O)N[C@@H](CC(N)=O)C(=O)N[C@@H](CC(C)C)C(=O)N[C@@H](CC(N)=O)C(=O)N[C@@H](CCC(=O)O)C(=O)N[C@@H](CO)C(=O)N[C@@H](CC(C)C)C(=O)N[C@H](C(=O)N[C@@H](CC(=O)O)C(=O)N[C@@H](CC(C)C)C(=O)N[C@@H](CCC(N)=O)C(=O)N[C@@H](CCC(=O)O)C(=O)N[C@@H](CC(C)C)C(N)=O)[C@@H](C)CC)C(C)C)NC(=O)[C@H](CC(N)=O)NC(=O)[C@H](CC(C)C)NC(=O)[C@H](CCCNC(=N)N)NC1=O)[C@@H](C)CC)[C@@H](C)CC)C(C)C)C(C)C`, the Activity in the experiment on SARS-CoV-2 [1] was determined as 27.8%; with SARS-CoV-2 [2] it was 35%.

Regarding `CC[C@H](C)[C@H](NC(=O)CNC(=O)[C@H](CO)NC(=O)[C@@H](NC(=O)[C@H](CC(=O)O)NC(C)=O)[C@@H](C)CC)C(=O)N[C@@H](CC(N)=O)C(=O)N[C@@H](C)C(=O)N[C@@H](CO)C(=O)N[C@H](C(=O)N[C@H](C(=O)N[C@@H](CC(N)=O)C(=O)N[C@H](C(=O)N[C@@H](CCC(N)=O)C(=O)N[C@@H](CCCCN)C(=O)N[C@@H](CCC(=O)O)C(=O)N[C@H](C(=O)N[C@@H](CC(=O)O)C(=O)N[C@@]1(C)CCC/C=C\CCC[C@@](C)(C(=O)N[C@@H](C)C(=O)N[C@@H](CCCCN)C(=O)N[C@@H](CC(N)=O)C(=O)N[C@@H](CC(C)C)C(=O)N[C@@H](CC(N)=O)C(=O)N[C@@H](CCC(=O)O)C(=O)N[C@@H](CO)C(=O)N[C@@H](CC(C)C)C(=O)N[C@H](C(=O)N[C@@H](CC(=O)O)C(=O)N[C@@H](CC(C)C)C(=O)N[C@@H](CCC(N)=O)C(=O)N[C@@H](CCC(=O)O)C(=O)N[C@@H](CC(C)C)C(N)=O)[C@@H](C)CC)NC(=O)[C@H](CCC(=O)O)NC(=O)[C@H](CC(N)=O)NC(=O)[C@H](CC(C)C)NC1=O)[C@@H](C)CC)[C@@H](C)CC)C(C)C)C(C)C`, the figures for the Activity in the experiment with SARS-CoV-2 [1] and in the experiment on SARS-CoV-2 [2] were 36.8% and 41%, respectively.

`CC[C@H](C)[C@H](NC(=O)CNC(=O)[C@H](CO)NC(=O)[C@@H](NC(=O)[C@H](CC(=O)O)NC(C)=O)[C@@H](C)CC)C(=O)N[C@@H](CC(N)=O)C(=O)N[C@@H](C)C(=O)N[C@@H](CO)C(=O)N[C@H](C(=O)N[C@H](C(=O)N[C@@H](CC(N)=O)C(=O)N[C@H](C(=O)N[C@@H](CCC(N)=O)C(=O)N[C@@H](CCCCN)C(=O)N[C@@]1(C)CCC/C=C\CCC[C@@](C)(C(=O)N[C@@H](CC(N)=O)C(=O)N[C@@H](CCC(=O)O)C(=O)N[C@H](C(=O)N[C@@H](C)C(=O)N[C@@H](CCCCN)C(=O)N[C@@H](CC(N)=O)C(=O)N[C@@H](CC(C)C)C(=O)N[C@@H](CC(N)=O)C(=O)N[C@@H](CCC(=O)O)C(=O)N[C@@H](CO)C(=O)N[C@@H](CC(C)C)C(=O)N[C@H](C(=O)N[C@@H](CC(=O)O)C(=O)N[C@@H](CC(C)C)C(=O)N[C@@H](CCC(N)=O)C(=O)N[C@@H](CCC(=O)O)C(=O)N[C@@H](CC(C)C)C(N)=O)[C@@H](C)CC)C(C)C)NC(=O)[C@H](CCCNC(=N)N)NC(=O)[C@H](CC(=O)O)NC(=O)[C@H]([C@@H](C)CC)NC1=O)[C@@H](C)CC)C(C)C)C(C)C`: the Activity with SARS-CoV-2 [1] is 39.8%; with SARS-CoV-2 [2] it was 32%.

Take `CC[C@H](C)[C@H](NC(=O)CNC(=O)[C@H](CO)NC(=O)[C@@H](NC(=O)[C@H](CC(=O)O)NC(C)=O)[C@@H](C)CC)C(=O)N[C@@H](CC(N)=O)C(=O)N[C@@H](C)C(=O)N[C@@H](CO)C(=O)N[C@H](C(=O)N[C@H](C(=O)N[C@@H](CC(N)=O)C(=O)N[C@H](C(=O)N[C@@H](CCC(N)=O)C(=O)N[C@@H](CCCCN)C(=O)N[C@@H](CCC(=O)O)C(=O)N[C@H](C(=O)N[C@@H](CC(=O)O)C(=O)N[C@@H](CCCNC(=N)N)C(=O)N[C@@]1(C)CCC/C=C\CCC[C@@](C)(C(=O)N[C@@H](CCCCN)C(=O)N[C@@H](CC(N)=O)C(=O)N[C@@H](CC(C)C)C(=O)N[C@@H](CC(N)=O)C(=O)N[C@@H](CCC(=O)O)C(=O)N[C@@H](CO)C(=O)N[C@@H](CC(C)C)C(=O)N[C@H](C(=O)N[C@@H](CC(=O)O)C(=O)N[C@@H](CC(C)C)C(=O)N[C@@H](CCC(N)=O)C(=O)N[C@@H](CCC(=O)O)C(=O)N[C@@H](CC(C)C)C(N)=O)[C@@H](C)CC)NC(=O)[C@H](C(C)C)NC(=O)[C@H](CCC(=O)O)NC(=O)[C@H](CC(N)=O)NC1=O)[C@@H](C)CC)[C@@H](C)CC)C(C)C)C(C)C`: the Activity was determined as 25.1% with SARS-CoV-2 [1] and 33.5% in the experiment with SARS-CoV-2 [2].

For the molecule `CC[C@H](C)[C@H](NC(=O)CNC(=O)[C@H](CO)NC(=O)[C@@H](NC(=O)[C@H](CC(=O)O)NC(C)=O)[C@@H](C)CC)C(=O)N[C@@H](CC(N)=O)C(=O)N[C@@H](C)C(=O)N[C@@H](CO)C(=O)N[C@H](C(=O)N[C@H](C(=O)N[C@@H](CC(N)=O)C(=O)N[C@H](C(=O)N[C@@]1(C)CCC/C=C\CCC[C@@](C)(C(=O)N[C@@H](CCCNC(=N)N)C(=O)N[C@@H](CC(C)C)C(=O)N[C@@H](CC(N)=O)C(=O)N[C@@H](CCC(=O)O)C(=O)N[C@H](C(=O)N[C@@H](C)C(=O)N[C@@H](CCCCN)C(=O)N[C@@H](CC(N)=O)C(=O)N[C@@H](CC(C)C)C(=O)N[C@@H](CC(N)=O)C(=O)N[C@@H](CCC(=O)O)C(=O)N[C@@H](CO)C(=O)N[C@@H](CC(C)C)C(=O)N[C@H](C(=O)N[C@@H](CC(=O)O)C(=O)N[C@@H](CC(C)C)C(=O)N[C@@H](CCC(N)=O)C(=O)N[C@@H](CCC(=O)O)C(=O)N[C@@H](CC(C)C)C(N)=O)[C@@H](C)CC)C(C)C)NC(=O)[C@H]([C@@H](C)CC)NC(=O)[C@H](CCC(=O)O)NC(=O)[C@H](CCCCN)NC1=O)[C@@H](C)CC)C(C)C)C(C)C`, the Activity with SARS-CoV-2 [1] is recorded as 47.6%; in the experiment with SARS-CoV-2 [2] it was 35%.

In the case of `CC[C@H](C)[C@H](NC(=O)CNC(=O)[C@H](CO)NC(=O)[C@@H](NC(=O)[C@H](CC(=O)O)NC(C)=O)[C@@H](C)CC)C(=O)N[C@@H](CC(N)=O)C(=O)N[C@@H](C)C(=O)N[C@@H](CO)C(=O)N[C@H](C(=O)N[C@H](C(=O)N[C@@H](CC(N)=O)C(=O)N[C@H](C(=O)N[C@@H](CCC(N)=O)C(=O)N[C@@H](CCCCN)C(=O)N[C@@H](CCC(=O)O)C(=O)NC1(C)CCC/C=C\CCCC(C)(C(=O)NC(CCC(=O)O)C(=O)N[C@H](C(=O)N[C@@H](C)C(=O)N[C@@H](CCCCN)C(=O)N[C@@H](CC(N)=O)C(=O)N[C@@H](CC(C)C)C(=O)N[C@@H](CC(N)=O)C(=O)N[C@@H](CCC(=O)O)C(=O)N[C@@H](CO)C(=O)N[C@@H](CC(C)C)C(=O)N[C@H](C(=O)N[C@@H](CC(=O)O)C(=O)N[C@@H](CC(C)C)C(=O)N[C@@H](CCC(N)=O)C(=O)N[C@@H](CCC(=O)O)C(=O)N[C@@H](CC(C)C)C(N)=O)[C@@H](C)CC)C(C)C)NC(=O)[C@H](CC(C)C)NC(=O)[C@H](CCCNC(=N)N)NC(=O)[C@H](CC(=O)O)NC1=O)[C@@H](C)CC)C(C)C)C(C)C` (stereo not given in full), the Activity with SARS-CoV-2 [1] was 50.8%; in the experiment with SARS-CoV-2 [2], 25%. This molecule had an EC50 in the experiment on SARS-CoV-2 [3] of 14.6 µM.

As usually defined, the EC50 is the concentration at which the effect is half-maximal.
